Consider ten compounds from ChEMBL document CHEMBL1139394, “Piperidine dispiro-1,2,4-trioxane analogues” (Bioorg Med Chem Lett, 2008).

This assay relates to Plasmodium falciparum. In words: Antimalarial activity against Plasmodium falciparum 3D7 infected human erythrocytes after 24 hrs by [3H]hypoxanthine uptake. The format is functional, organism-based.
As to `C1CC2(CCN1)COC1(OO2)C2CC3CC(C2)CC1C3` (stereo not given), the IC50 (usually the concentration at which inhibition is half-maximal) was found to be 121 nM.

In the case of `O=S(=O)(c1ccccc1)N1CCC2(CC1)OOC1(O2)C2CC3CC(C2)CC1C3` (stereo not given), the IC50 was determined as 6.22 nM.

In turn, `CO[C@H]1O[C@@H]2O[C@@]3(C)CC[C@H]4[C@H](C)CC[C@@H]([C@H]1C)[C@@]24OO3` [ARTEMETHER] showed an IC50 of 1.26 nM.

As for `O=C(OCC1c2ccccc2-c2ccccc21)N1CCC2(CC1)COC1(OO2)C2CC3CC(C2)CC1C3` (stereo not given), the half-maximal inhibitory concentration (IC50) came to 174 nM.

For `CC(=O)N1CCC2(CC1)COC1(OO2)C2CC3CC(C2)CC1C3` (stereo not given), the midpoint of inhibition, the IC50, lay at 183 nM.

Consider `CC(C)(C)OC(=O)N1CCC2(CC1)COC1(OO2)C2CC3CC(C2)CC1C3` (stereo not given), for which the IC50 was 198 nM.

As to `CCS(=O)(=O)N1CCC2(CC1)COC1(OO2)C2CC3CC(C2)CC1C3` (stereo not given), inhibition was half-maximal at 180 nM (IC50).

Take `O=S(=O)(c1ccccc1)N1CCC2(CC1)OCC1(OO2)C2CC3CC(C2)CC1C3` (stereo not given): the IC50 is > 1000 nM.

On to `O=S(=O)(c1ccccc1)N1CCC2(CC1)COC1(OO2)C2CC3CC(C2)CC1C3` (stereo not given), for which half-maximal inhibition (IC50) required 710 nM.

On to `O=S(=O)(c1ccccc1)N1CCC2(CC1)OOC1(OO2)C2CC3CC(C2)CC1C3`, for which half-maximal inhibition (IC50) required 10.7 nM.
